Data on five compounds can be found in PMC10823475, “Design, Synthesis, and Evaluation of Inhibitors of Hedgehog Acyltransferase” (Journal of Medicinal Chemistry, 2024).

The structures appear in SMILES notation. Where “and” joins values, the source holds several entries; their conditions need not be identical. Equal entries are not always repeated. Where two headings read alike, the source gives them in different places.

In one series the test system is HEK293a SHH+ cells. The series is described as follows: MTS assay, cytotoxicity (72 h). Format: cell-based. Particulars: for decrease in cell viability / cell survival: 12.5 μM. Put shortly: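 Cells plated at 5000/well, cultured 24 h, then exposed to analogues (0.14–100 μM final) in DMEM/10% FBS for 72 h. MTS/PMS added for 3 h at 37 °C and absorbance read at 490 nm; data normalised to DMSO vehicle and puromycin (2 μg/mL) wells, curves fitted with a variable-slope sigmoidal model.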

A short description of series [1]: Microsomal incubations, mouse liver microsomes. Format: in vitro ADME. Particulars: 1 μM. Here is the method:
(§1) Metabolic stability assays were performed using a Microlab Star liquid handling workstation (Hamilton Robotics, Bonaduz, Switzerland). Test compounds (1 μM, 1% DMSO) were preincubated at 37 °C for 10 min in 0.5 mg/mL female CD1 mouse and mixed gender human liver microsomes in 10 mM phosphate buffered saline (PBS; Sigma-Aldrich Company Ltd. (Dorset, UK)). Microsomes were purchased either from Sekisui XenoTech, LLC (Kansas City, USA) or BioreclamationIVT (Frankfurt Am Main, Germany). Reactions were initiated by the addition of NADPH (final concentration 1 mM). At 0, 15, and 30 min, aliquots were removed from each incubation and quenched in 3 volumes of ice-cold methanol containing olomoucine (Sigma-Aldrich, Dorset, UK) as an internal standard. […] The percentage metabolized was calculated by comparing peak area ratio (peak area test compound/peak area of internal standard) at t = 15 and 30 min versus t = 0 min.
For orientation: Liver microsomes are vesicles of endoplasmic reticulum, rich in cytochrome P450 enzymes.

Series [2] in a line: Microsomal incubations, human liver microsomes. Particulars: 1 μM. Format: in vitro ADME. The procedure: as §1
For another series, the target named is HHAT. On the set-up: method as in PMID 34890564, PMID 33768725. Particulars: read-out: Ki, competitive inhibitor of Pal-CoA; cited from earlier work.
Series [3] is described as follows: PAMPA parallel artificial membrane permeability assay. Particulars: for recovery at 16 h, 10 µM / Papp at 16 h, 10 μM: PAMPA. In general terms: The PAMPA barrier holds no transporters, so it reflects passive diffusion.
Protocol: Passive diffusion was estimated using the PAMPA method. […] The donor plate was a MultiScreen-IP Plate with 0.45 μm hydrophobe Immobilon-P Membrane (Millipore, #MAIPNTR10) and the acceptor plate was a MultiScreen 96-well Transport Receiver Plate (Millipore, #MATRNPS50). […] Acceptor pH was 7.4. All samples were analyzed against an external, matrix-matched, standard curve by LC-MS/MS with a Waters (Elstree, Herts. UK) Acquity H-class LC system coupled to a Waters TQ-S mass spectrometer. Permeability values (cm/s) were calculated using the following equation: [drawing 2] and VD = volume of donor; VA = volume of acceptor; area = surface area of the membrane · porosity.
The nature of series [4]: Caco-2 permeability assay. Format: in vitro ADME, human. Particulars: human; for Papp A→B at 2 h, 10 μM / Papp B→A at 2 h, 10 μM / recovery at 2 h, 10 µM: Caco-2, pH 7.4, 10 µM; for efflux ratio at 2 h, 10 µM: Caco-2, pH 7.4, read-out: Caco-2 Eflux Ratio (B>A/A>B). Here is the method: (§2) Apparent permeability (Papp) was determined in the Caco-2 human colon carcinoma cell line. Cells were maintained in DMEM containing 10% fetal bovine serum, penicillin and streptomycin in a humidified atmosphere with 5% CO2 for 10 days. Cells were plated onto a cell culture assembly plate (Millipore, UK) and monolayer confluency was checked using a TEER electrode prior to the assay. Medium was washed off and replaced in the appropriate apical and basal wells with HBSS buffer (pH 7.4) containing compounds (10 μM, 1% DMSO). The Caco-2 plate was incubated for 2 h at 37 °C, and Lucifer yellow was used to confirm membrane integrity postassay. […] Papp was determined as follows: [drawing 1] where Vr = volume of receptical; A = surface area of monolayer; C0 = Initial compound concentration in donor.
A general note: Caco-2 cells form a polarised layer with tight junctions and transporters.

Series [5] relates to Caco-2 human colon carcinoma cell line. The experiment in a line: Caco-2 permeability assay. Format: in vitro ADME. Here is the method:
as §2

[6] abbreviates: pH 5, PAMPA Papp pH 5, donor pH 5, 10 µM.
Setting [7] is: pH 5, PAMPA Permeability Class pH 5, donor pH 5, 10 µM.
[8] abbreviates: pH 6.5, PAMPA Papp pH 6.5, donor pH 6.5, 10 µM.
Setting [9] is: pH 6.5, PAMPA Permeability Class pH 6.5, donor pH 6.5, 10 µM.
Where [10] appears, read: pH 7.4, PAMPA Papp pH 7.4, donor pH 7.4, 10 µM.
The mark [11] stands for this setting: pH 7.4, PAMPA Permeability Class pH 7.4, donor pH 7.4, 10 µM.
The mark [12] stands for this setting: + Verapamil (P-glycoprotein inhibitor).
Where [13] appears, read: + Verapamil (P-glycoprotein inhibitor), read-out: Caco-2 A>B Recovery.
Setting [14] is: + Verapamil (P-glycoprotein inhibitor), read-out: Caco-2 B>A Recovery.
[15] abbreviates: without Verapamil, read-out: Caco-2 A>B Recovery.
The mark [16] stands for this setting: without Verapamil, read-out: Caco-2 B>A Recovery.

Usually CC50 stands for the concentration that lowers cell viability or growth by half. What is called Ki is a measure of affinity in units of concentration, obtained from inhibition or displacement. As a reminder, the Papp is a coefficient for how fast a substance crosses the barrier. Higher therefore signals ready permeation. A word on the Papp A→B: it is how fast a substance crosses the layer from the apical side. In general, Papp B→A refers to the apparent permeability from the basolateral to the apical side of a cell layer.

For the compound `Cc1cccc([C@H]2c3ccsc3CCN2C(=O)CNCC(C)C)n1` [Compound 30], in the series on HEK293a SHH+ cells, the “decrease in cell viability / cell survival” value is listed as less than 30%. The CC50 in the series with HEK293a SHH+ cells (72 h, read-out: MTS Assay (HEK293a SHH+) CC50 (CI95)) was greater than 100000 nM. Besides, in series [1], the “MLM % metabolized after 15 min” value is > 90% and 95.5%; the “MLM % metabolized after 30 min” value came to 99.7%. Also, in series [2], the “HLM % metabolized after 15 min” value is on record as 28.8% and the “HLM % metabolized after 30 min” value turned out to be 36.9%. Moreover, the Ki at HHAT is 38 nM.

Regarding `CC(=O)N1CCc2sccc2C1c1ccccc1` (stereo not shown) [Compound 5], the “decrease in cell viability / cell survival” value with HEK293a SHH+ cells is less than 30%. The “MLM % metabolized after 15 min” value in series [1] was 99.5% and > 90%. The “MLM % metabolized after 30 min” value in series [1] amounted to 99.4%. Moreover, the “HLM % metabolized after 15 min” value in series [2] came out at 52.5%. For the same compound, the “HLM % metabolized after 30 min” value in series [2] was found to be 64.3%. For the same compound, the figures for the recovery at 16 h, 10 µM in series [3] (pH 5), in series [3] (pH 6.5) and in series [3] (pH 7.4) were 95%, 98% and 91%, respectively. The Papp at 16 h, 10 μM in series [3] (setting [6]) is greater than 200 ×10⁻⁶ cm/s; in series [3] (setting [7]) it was greater than 20 ×10⁻⁶ cm/s; in series [3] (setting [8]) it was 117 ×10⁻⁶ cm/s; in series [3] (setting [9]) it was greater than 20 ×10⁻⁶ cm/s; in series [3] (setting [10]) it was greater than 200 ×10⁻⁶ cm/s; in series [3] (setting [11]), greater than 20 ×10⁻⁶ cm/s. The “PAMPA permeability” value in series [3] (over the full pH range tested) is “high permeability”. For the same compound, in series [3] (pH 7.4), the “PAMPA passive permeability” value is given as “high passive permeability”.

Regarding `C=CCNCC(=O)N1CCc2sccc2C1COc1ccc(Cl)cc1` (stereo not shown) [Compound 2], in the series on HEK293a SHH+ cells, the “decrease in cell viability / cell survival” value is 44%. Further, the values for the Papp A→B at 2 h, 10 μM in series [4] (setting [12]) and in series [4] (without Verapamil) were 8.3 ± 0.9 ×10⁻⁶ cm/s and 14.5 ± 0.4 ×10⁻⁶ cm/s, respectively. In addition, the Papp B→A at 2 h, 10 μM in series [4] (setting [12]) came to 12.5 ± 1.9 ×10⁻⁶ cm/s; in series [4] (without Verapamil), 12.4 ± 2.1 ×10⁻⁶ cm/s. Besides, the recovery at 2 h, 10 µM came out at 41.1 ± 1% in series [4] (setting [13]), 51.6 ± 1% in series [4] (setting [14]), 56.7 ± 1.9% in series [4] (setting [15]) and 87.8 ± 1.2% in series [4] (setting [16]). Also, in series [4], the efflux ratio at 2 h, 10 µM came out at 0.86. Further, the “Caco-2 efflux” value in series [5] is “no detectable efflux”. Also, in series [5], the “Caco-2 permeability” value is recorded as “moderate-high permeability”. Further, the “MLM % metabolized after 15 min” value in series [1] was 90.8% and > 90%. For the same compound, in series [1], the “MLM % metabolized after 30 min” value turned out to be 98.4%. Moreover, in series [2], the “HLM % metabolized after 15 min” value is reported as 43.0%. Besides, in series [2], the “HLM % metabolized after 30 min” value turned out to be 69.5%. Also, the recovery at 16 h, 10 µM in series [3] (pH 5) is less than 31%; in series [3] (pH 6.5) it was less than 10%; in series [3] (pH 7.4), less than 10%. Moreover, the Papp at 16 h, 10 μM in series [3] (setting [6]) was less than 1.5 ×10⁻⁶ cm/s; in series [3] (setting [7]), less than 5 ×10⁻⁶ cm/s; in series [3] (setting [8]) it was 10.9 ×10⁻⁶ cm/s; in series [3] (setting [9]), 5 to 20 ×10⁻⁶ cm/s; in series [3] (setting [10]), 20.4 ×10⁻⁶ cm/s; in series [3] (setting [11]), greater than 20 ×10⁻⁶ cm/s. The “PAMPA passive permeability” value in series [3] (pH 7.4) is “high passive permeability”.

With `CCC(C)CNCC(=O)N1CCc2sccc2C1c1cccc(C)c1` (stereo not shown) [Compound 17], in the series on HEK293a SHH+ cells, the “toxicity to HEK293a SHH+ cells” value is reported as “toxic”. The Papp A→B at 2 h, 10 μM in series [4] (setting [12]) is 14.2 ± 0.8 ×10⁻⁶ cm/s; in series [4] (without Verapamil) it was 17 ± 2.5 ×10⁻⁶ cm/s. The results for the Papp B→A at 2 h, 10 μM in series [4] (setting [12]) and in series [4] (without Verapamil) were 19.8 ± 2 ×10⁻⁶ cm/s and 17.4 ± 4.1 ×10⁻⁶ cm/s, respectively. In addition, the recovery at 2 h, 10 µM in series [4] (setting [13]) amounted to 58.6 ± 0.9%; in series [4] (setting [14]) it was 66.6 ± 1.9%; in series [4] (setting [15]), 60.5 ± 2.4%; in series [4] (setting [16]) it was 80.4 ± 2.2%. Further, in series [4], the efflux ratio at 2 h, 10 µM came to 1.02. The “MLM % metabolized after 15 min” value in series [1] was 99.5% and > 90%. Moreover, the “MLM % metabolized after 30 min” value in series [1] was 100.0%. Also, the “HLM % metabolized after 15 min” value in series [2] worked out at 44.4%. In addition, the “HLM % metabolized after 30 min” value in series [2] turned out to be 66.7%. For the same compound, the recovery at 16 h, 10 µM in series [3] (pH 5) was less than 31%; in series [3] (pH 6.5), less than 10%; in series [3] (pH 7.4) it was less than 10%. For the same compound, the Papp at 16 h, 10 μM in series [3] (setting [6]) was less than 0.7 ×10⁻⁶ cm/s; in series [3] (setting [7]) it was less than 5 ×10⁻⁶ cm/s; in series [3] (setting [8]) it was less than 9.7 ×10⁻⁶ cm/s; in series [3] (setting [9]), 5 to 20 ×10⁻⁶ cm/s; in series [3] (setting [10]) it was less than 4.5 ×10⁻⁶ cm/s; in series [3] (setting [11]), less than 5 ×10⁻⁶ cm/s.

With `CCC(C)CNCC(=O)N1CCc2sccc2C1c1cccc(C)n1` (stereo not shown) [Compound 22], the Papp A→B at 2 h, 10 μM came to 35.5 ± 2 ×10⁻⁶ cm/s in series [4] (setting [12]) and 39.2 ± 0.7 ×10⁻⁶ cm/s in series [4] (without Verapamil). Further, the Papp B→A at 2 h, 10 μM in series [4] (setting [12]) amounted to 22.7 ± 3.3 ×10⁻⁶ cm/s; in series [4] (without Verapamil) it was 29.7 ± 0.2 ×10⁻⁶ cm/s. The recovery at 2 h, 10 µM in series [4] (setting [13]) came to 70 ± 2.5%; in series [4] (setting [14]) it was 75.7 ± 2%; in series [4] (setting [15]), 88.7 ± 0.1%; in series [4] (setting [16]), 108 ± 3.1%. For the same compound, the efflux ratio at 2 h, 10 µM in series [4] is 0.76. In addition, in series [5], the “Caco-2 efflux” value is given as “no detectable efflux”. Further, the “Caco-2 permeability” value in series [5] was “moderate-high permeability”. The “MLM % metabolized after 15 min” value in series [1] is 98.1% and > 90%. The “MLM % metabolized after 30 min” value in series [1] came to 99.7%. Moreover, the “HLM % metabolized after 15 min” value in series [2] was 36.9%. In series [2], the “HLM % metabolized after 30 min” value turned out to be 56.2%. Further, the figures for the recovery at 16 h, 10 µM in series [3] (pH 5), in series [3] (pH 6.5) and in series [3] (pH 7.4) were less than 65%, less than 23% and less than 15%, respectively. Moreover, the Papp at 16 h, 10 μM in series [3] (setting [6]) is less than 0.4 ×10⁻⁶ cm/s; in series [3] (setting [7]), less than 5 ×10⁻⁶ cm/s; in series [3] (setting [8]), 13 ×10⁻⁶ cm/s; in series [3] (setting [9]), 5 to 20 ×10⁻⁶ cm/s; in series [3] (setting [10]) it was 42.4 ×10⁻⁶ cm/s; in series [3] (setting [11]), greater than 20 ×10⁻⁶ cm/s. In addition, the “PAMPA passive permeability” value in series [3] (pH 7.4) is given as “high passive permeability”.
